This is an account of results in patent US10035806B2, “Derivatized corroles and metallocorroles and their use as imaging and therapeutic agents” (CALIFORNIA INSTITUTE OF TECHNOLOGY, priority 2015, dated 2018).

Marks after values point to notes of the source that are not given here.

Experiment in all cases: NCI60 anticancer drug screen
Holding throughout (assay type): cell-based, human

One experiment has as its system A498. The note with it: A498 (Renal Cancer), 10 μM, 48 h. The text has this: (§1) The aminocaproate-substituted corrole Complex 3 was submitted to NCI for cytotoxic screening at a single high dose (10−5M) in a panel of 60 human tumor cell lines (NCI60). Details of the cytotoxicity assessment in the NCI anticancer drug screen have been described previously, in Monks A, et al. (1991) Feasibility of a high-flux anticancer drug screen using a diverse panel of cultured human tumor cell lines. J Natl Cancer Inst 83(11):757-766, this reference being incorporated by reference for these teachings.
(§2) In view of the promising results observed for carboxylated corroles, Complex 3 was selected for expanded cell screening to uncover additional susceptible cancer cell lines. The cytotoxic activity of Complex 3 was tested at a dose of 10^−5 M against 60 human cancer cell lines representing nine distinct tumor types in the anticancer screening program of the National Cancer Institute (NCI). The in vitro parameters for cytotoxicity, growth percent, and lethality were obtained for Complex 3 and reported as a mean graph of the percent growth of treated cells (FIG. 7). Bars in the mean graph depict the deviation of individual tumor cell lines from the overall mean value for all cells tested. Bars that project to the right of the mean represent cell lines that are more sensitive to Complex 3, whereas cell lines less sensitive to the compound display bars that project to the left.
(§3) The numerical values associated with this assay represent growth relative to the no-drug control and the numbers of cells at time 0 (FIG. 7). This allows detection of both growth inhibition (values between 0 and 100) and lethality (values less than 0). For example, a value of 100 signifies no growth inhibition, 40 means 60% growth inhibition, 0 means no net growth over the course of the experiment, −40 means 40% lethality, and −100 indicates all cells are dead. […] Growth inhibitions reflect cytostatic activity of the compound as previously shown for Complex 2. In contrast, cell lethality is only evident in melanoma cells, specifically the LOX IMVI and SK-MEL-28 cell lines.

The test system of another experiment is A549/ATCC. Particulars: A549/ATCC (Non-small-cell lung cancer), 10 μM, 48 h.
From the text: as §1, §2, §3

The test system of the next experiment is ACHN. Particulars: ACHN (Renal Cancer), 10 μM, 48 h.
From the text: as §1, §2, §3

For a further experiment, the system named is CAK-1. Particulars: CAK-1 (Renal Cancer), 10 μM, 48 h.
From the text: as §1, §2, §3

Another experiment deals with EKVX. The note with it: EKVX (Non-small-cell lung cancer), 10 μM, 48 h.
From the text: as §1, §2, §3

A further experiment concerns HOP-62. The note with it: HOP-62 (Non-small-cell lung cancer), 10 μM, 48 h.
From the text: as §1, §2, §3

Another experiment deals with HT29. Particulars: HT29 (Colon cancer), 10 μM, 48 h.
From the text: as §1, §2, §3

A further experiment relates to K-562. Particulars: K-562 (Leukemia), 10 μM, 48 h.
From the text: as §1, §2, §3

Another experiment relates to MCF7. Particulars: MCF7 (Breast Cancer), 10 μM, 48 h.
From the text: as §1, §2, §3

In a further experiment the test system is MDA-MB-231/ATCC. The note with it: MDA-MB-231/ATCC (Breast Cancer), 10 μM, 48 h.
From the text: as §1, §2, §3

Another experiment relates to NCI-H23. The note with it: NCI-H23 (Non-small-cell lung cancer), 10 μM, 48 h.
From the text: as §1, §2, §3

The test system of a further experiment is NCl/ADR-RES. The note with it: NCl/ADR-RES (Ovarian Cancer), 10 μM, 48 h.
From the text: as §1, §2, §3

The next experiment deals with PC-3. Particulars: PC-3 (Prostate Cancer), 10 μM, 48 h.
From the text: as §1, §2, §3

Another experiment concerns RPMI-8226. Particulars: RPMI-8226 (Leukemia), 10 μM, 48 h.
From the text: as §1, §2, §3

Another experiment deals with SF-539. Particulars: SF-539 (CNS Cancer), 10 μM, 48 h.
From the text: as §1, §2, §3

The next experiment deals with SK-OV-3. Particulars: SK-OV-3 (Ovarian Cancer), 10 μM, 48 h.
From the text: as §1, §2, §3

Another experiment concerns SK-MEL-28. The note with it: SK-MEL-28 (Melanoma), 10 μM, 48 h; lethality rather than inhibition.

Take `O=C(O)CCCCCNc1c(F)c(F)c(C2=C3C=CC4=[N+]3[Ga-]35[n]6c2ccc6C(c2c(F)c(F)c(F)c(F)c2F)=c2ccc([n]23)=C(c2c(F)c(F)c(F)c(F)c2F)c2ccc4[n]25)c(F)c1F` (centres unmarked) [Complex 3]: the “Growth inhibition, %” value with A498 was 99.0%; in the experiment on A549/ATCC, 82.7%; with ACHN, 73.2%; with CAK-1, 71.7%; in the experiment with EKVX it was 59.7%; in the experiment with HOP-62 it was 44.9%. Moreover, the “Growth inhibition, %” value was 60.6% in the experiment on HT29; 72.9% in the experiment with K-562; 63.1% in the experiment with MCF7; 72.5% with MDA-MB-231/ATCC; 64.5% with NCI-H23; 52.7% with NCl/ADR-RES. Besides, the “Growth inhibition, %” value was found to be 71.9% with PC-3, 70.2% with RPMI-8226, 85.3% with SF-539 and 32.9% with SK-OV-3. Further, the “% lethality” value in the experiment on SK-MEL-28 is 12.1** %.
